# Results as given in publication PMC3985299, “Single Ascending Dose Safety and Pharmacokinetics of CDRI-97/78: First-in-Human Study of a Novel Antimalarial Drug” (Malaria Research and Treatment, 2014).
# “Also recorded” adds a separate entry of the source.
# How the values were obtained:
# [1] = system: healthy human volunteers; assay: Single ascending dose, placebo-controlled phase I study: adverse events, tolerability, MTD; assay type: in vivo; settings: for Severity grade: CTCAE v4.0
# Description: This was a single ascending dose, placebo-controlled, randomized, double blind trial. Randomization was carried out by computer generated random number sequence. Randomization was carried out for the drug and the placebo in a 3 : 1 ratio for each dose level. The drugs were dispensed in sealed bottles with the randomization code written on them. Randomization codes were provided in sealed opaque envelopes with the protocol specification that the codes may be opened by the investigator only in case of a serious or severe adverse event.
# This was used to obtain a dose of 96 mg for a 60 kg person. […] The following dose levels were evaluated: 80, 160, 320, 400, 500, 600, and 700 mg. The starting dose was calculated by allometric scaling from animals. At each dose level, six volunteers received CDRI 97/78 and two received placebo except at 700 mg where only two volunteers were given this dose. At each dose level, volunteers were assessed before proceeding to the next dose.
# The decision to stop the dose escalation was based on the appearance of the dose limiting toxicity (DLT) which was defined as the dose at which any of the following appeared: severe nausea, vomiting, heartburn, headache, remarkable change in vital parameters such as blood pressure, heart rate, respiratory rate or oxygen saturation of blood, changes in QT interval, or any event that in the opinion of the investigators required stopping of the trial.
# In case this was not achieved, it was planned not to dose volunteers beyond 700 mg.
# The volunteers after giving informed consent were screened. The screening process was done latest within 1 month of admission for dosing. The volunteers who fulfilled the inclusion/exclusion criteria were admitted in the CPU the night before drug administration. Standardized dinner was served at 9 pm the night prior to dosing. On day 0, baseline blood sample for biochemical and haematological examination and stool and urine samples for routine and microscopy were taken. They received the study drug, according to the randomization sequence, under supervision. The empty packaging was returned to the container. The volunteers received drug as per randomization. Breakfast was given half an hour after drug administration. Subsequently, standardized lunch and dinner were served to the volunteers.
# The subjects were attached to a cardiac monitor and vital HR, BP, ECG, oxygen saturation, and RR were recorded. Corrected QT interval using Fridericia's formula was calculated. […] Unscheduled monitoring was undertaken whenever it felt necessary. […] At the end of the 7th day, they were said to have completed the study. […] The study was monitored by a Data Safety Monitoring Board.
# [2] = system: chloroquine resistant P. falciparum; design: method as in printed; settings: chloroquine resistant P. falciparum in vitro; background, ref not given; cited from earlier work
# [3] = AE Heaviness of head, 80 mg group
# [4] = AE Visual disturbances, 320 mg group
# [5] = single oral dose 80-700 mg, healthy male volunteers
# [6] = volunteers given 500 mg, 600 mg (and placebo)
structure (smiles),measurement,setting,value
"C=C(c1ccc(OC(C)(C)COC(=O)CCC(=O)O)cc1)C1COC2(OO1)C1CC3CC(C1)CC2C3 (stereo not shown) [CDRI 97/78, Mono[2methyl2[3(1spiro[tricycle[3.3.1.13,7]decane2,3′-[1,2,4]trioxan] 6′-ylethenyl)phenoxy]propyl] ester]",No. of events,"[1]; 80 mg, Heaviness of head",1
same,Type of adverse events,[1]; 160 mg,None
same,No. of events,"[1]; 320 mg, Visual disturbance",1
same,No. of events,"[1]; 400 mg, Bradycardia",1
same,No. of events,"[1]; 400 mg, Drowsiness",1
same,No. of events,"[1]; 400 mg, Itching",1
same,No. of events,"[1]; 500 mg, Nausea",1
same,No. of events,"[1]; 500 mg, Sedation",1
same,No. of events,"[1]; 600 and 700 mg, Sedation",1
same,Causality assessment,"[1]; AE Bradycardia, 400 mg group",Possible (possible (>5% but ≤50% chance of being drug related)
same,Duration of AE,"[1]; AE Bradycardia, 400 mg group",60 min
same,Reversal complete (yes or no),"[1]; AE Bradycardia, 400 mg group",Yes
same,Spontaneous reversal (yes or no),"[1]; AE Bradycardia, 400 mg group",Yes
same,Time (hrs) of onset after drug administration,"[1]; AE Bradycardia, 400 mg group",1 h
same,Treatment given,"[1]; AE Bradycardia, 400 mg group",None
same,Severity grade,"[1]; AE Bradycardia, 400 mg group",1
same,Causality assessment,"[1]; AE Drowsiness, 400 mg group",Possible (possible (>5% but ≤50% chance of being drug related)
same,Duration of AE,"[1]; AE Drowsiness, 400 mg group",60 min
same,Reversal complete (yes or no),"[1]; AE Drowsiness, 400 mg group",Yes
same,Spontaneous reversal (yes or no),"[1]; AE Drowsiness, 400 mg group",Yes
same,Time (hrs) of onset after drug administration,"[1]; AE Drowsiness, 400 mg group",2 h
same,Treatment given,"[1]; AE Drowsiness, 400 mg group",None
same,Severity grade,"[1]; AE Drowsiness, 400 mg group",1
same,Causality assessment,[1]; [3],Possible (possible (>5% but ≤50% chance of being drug related)
same,Duration of AE,[1]; [3],15 min
same,Reversal complete (yes or no),[1]; [3],Yes
same,Spontaneous reversal (yes or no),[1]; [3],Yes
same,Time (hrs) of onset after drug administration,[1]; [3],0.25 h
same,Treatment given,[1]; [3],None
same,Severity grade,[1]; [3],1
same,Causality assessment,"[1]; AE Itching, 400 mg group",Possible (possible (>5% but ≤50% chance of being drug related)
same,Duration of AE,"[1]; AE Itching, 400 mg group",8 min
same,Reversal complete (yes or no),"[1]; AE Itching, 400 mg group",Yes
same,Spontaneous reversal (yes or no),"[1]; AE Itching, 400 mg group",Yes
same,Time (hrs) of onset after drug administration,"[1]; AE Itching, 400 mg group",24 h
same,Treatment given,"[1]; AE Itching, 400 mg group",None
same,Severity grade,"[1]; AE Itching, 400 mg group",1
same,Causality assessment,"[1]; AE Nausea, 500 mg group",Possible (possible (>5% but ≤50% chance of being drug related)
same,Duration of AE,"[1]; AE Nausea, 500 mg group",20 min
same,Reversal complete (yes or no),"[1]; AE Nausea, 500 mg group",Yes
same,Spontaneous reversal (yes or no),"[1]; AE Nausea, 500 mg group",Yes
same,Time (hrs) of onset after drug administration,"[1]; AE Nausea, 500 mg group",0.25 h
same,Treatment given,"[1]; AE Nausea, 500 mg group",None
same,Severity grade,"[1]; AE Nausea, 500 mg group",1
same,Causality assessment,"[1]; AE Sedation, 500 mg group",Possible (possible (>5% but ≤50% chance of being drug related)
same,Duration of AE,"[1]; AE Sedation, 500 mg group",120 min
same,Reversal complete (yes or no),"[1]; AE Sedation, 500 mg group",Yes
same,Spontaneous reversal (yes or no),"[1]; AE Sedation, 500 mg group",Yes
same,Time (hrs) of onset after drug administration,"[1]; AE Sedation, 500 mg group",2 h
same,Treatment given,"[1]; AE Sedation, 500 mg group",None
same,Severity grade,"[1]; AE Sedation, 500 mg group",1-2
same,Causality assessment,"[1]; AE Sedation, 600 mg group",Possible (possible (>5% but ≤50% chance of being drug related)
same,Duration of AE,"[1]; AE Sedation, 600 mg group",60 min
same,Reversal complete (yes or no),"[1]; AE Sedation, 600 mg group",Yes
same,Spontaneous reversal (yes or no),"[1]; AE Sedation, 600 mg group",Yes
same,Time (hrs) of onset after drug administration,"[1]; AE Sedation, 600 mg group",2 h
same,Treatment given,"[1]; AE Sedation, 600 mg group",None
same,Severity grade,"[1]; AE Sedation, 600 mg group",1-2
same,Causality assessment,[1]; [4],Remote (remote (<5% chance of being drug related))
same,Duration of AE,[1]; [4],2 to 3 min
same,Reversal complete (yes or no),[1]; [4],Yes
same,Spontaneous reversal (yes or no),[1]; [4],Yes
same,Time (hrs) of onset after drug administration,[1]; [4],36 h
same,Treatment given,[1]; [4],None
same,Severity grade,[1]; [4],1
same,Heart rate during adverse event bradycardia,[1]; adverse event bradycardia,56-57 bpm
same,"Incidence of adverse events, drug vs placebo groups","[1]; all dose levels, P = 0.43",no significant difference
same,Serious adverse events,[1]; single oral dose 80-700 mg,No serious adverse events were reported
same,MTD (maximum tolerated dose),[1]; [5],not reached; also recorded: could not be determined
same,Tolerability / safety,[1]; [5],well tolerated; also recorded: safe and tolerable
same,Sedation: duration,[1]; [6],1 to 2 h
same,Sedation: time of onset after drug administration,[1]; [6],about 2 hours
same,Antimalarial activity,[2],powerful antimalarial activity
